Source: patent US20160000782A1, “PHARMACEUTICAL COMPOSITION CONTAINING ANTIBACTERIAL AGENT” (priority 2013, published 2016)

Test system: Archaea (extreme halophile) infection causing dementia
Test: Treatment of patients with progressive dementia of unknown etiology (clinical course, MRI)
Assay type: in vivo, human
Method: The present inventors conducted studies by targeting 4 subjects with progressive dementia of unknown etiology at the Kagoshima University Medical and Dental Hospital. This study took place after the informed consent of the patients involved had been obtained. Also, this study was carried out with the approval of the ethical review committee of Kagoshima University.
Dementia was evaluated using the Revised Hasegawa Dementia Scale (HDS-R), which is […] that used for the mini-mental status examination (MMSE).

CO/N=C(\C(=O)N[C@@H]1C(=O)N2C(C(=O)O)=C(CSc3nc(=O)c(=O)[nH]n3C)CS[C@H]12)c1csc(N)n1 [ceftriaxone]
symptoms (Patient 1, ceftriaxone and methylprednisolone administered together, 2 weeks after the initial administration): improved slightly
symptoms thereafter (Patient 1, ceftriaxone and methylprednisolone administered together, later course, enlarged lesion in base of temporal lobe on brain MRI): tended to progress
improvement (Patient 3, ceftriaxone 4 g/day intravenous for 2 weeks): no improvement was observed
